The values below come from ChEMBL document CHEMBL3112414, “Synthesis of 3-tetrazolylmethyl-4H-chromen-4-ones via Ugi-azide and biological evaluation against Entamoeba histolytica, Giardia lamblia and Trichomona vaginalis” (Bioorg Med Chem, 2014).

Common to all, as to assay type: functional, organism-based
The test system of one assay is Giardia intestinalis. Briefly: Antiprotozoal activity against trophozoite stage of Giardia lamblia IMSS:8909:1 assessed as growth inhibition after 48 hrs. To be noted: Giardia duodenalis, IMSS:8909:1, 48 h.
A further assay relates to Entamoeba histolytica. Briefly: Antiprotozoal activity against trophozoite stage of Entamoeba histolytica HM-1:IMSS assessed as growth inhibition after 48 hrs.
Another assay deals with Trichomonas vaginalis. Briefly: Antiprotozoal activity against trophozoite stage of Trichomonas vaginalis GT3 assessed as growth inhibition.

For orientation: IC50 means the concentration that inhibits the measured activity by half. `COc1ccc(-c2coc3cc(O)ccc3c2=O)cc1` [FORMONONETIN]: the IC50 in the assay on Giardia intestinalis was found to be 0.03 µg/mL.

For `CC(C)(C)n1nnnc1C(Nc1ccccc1I)c1coc2ccccc2c1=O` (stereo not given), the IC50 was 207 µM with Giardia intestinalis, 134 µM in the assay on Entamoeba histolytica and 280 µM in the assay with Trichomonas vaginalis.

For the compound `CC(C)(C)n1nnnc1C(Nc1ccc(Cl)cc1)c1coc2ccccc2c1=O` (stereo not given), the concentration for half-maximal inhibition (IC50) in the assay with Giardia intestinalis worked out at 269 µM; in the assay on Entamoeba histolytica, 161 µM; with Trichomonas vaginalis it was 371 µM.

For the compound `COc1ccc(NC(c2coc3ccccc3c2=O)c2nnnn2-c2c(C)cccc2C)cc1OC` (stereo not given), the IC50 in the assay on Giardia intestinalis was determined as 240 µM; in the assay with Entamoeba histolytica, 111 µM; in the assay on Trichomonas vaginalis, 192 µM.

On to `CC(C)(C)n1nnnc1C(Nc1ccc(I)cc1)c1coc2ccccc2c1=O` (stereo not given), for which the values for the IC50 in the assay with Giardia intestinalis, with Entamoeba histolytica and in the assay with Trichomonas vaginalis were 197 µM, 142 µM and 246 µM, respectively.

Take `O=c1c(C(Nc2ccc([N+](=O)[O-])cc2)c2nnnn2C2CCCCC2)coc2ccccc12` (stereo not given): the IC50 in the assay on Giardia intestinalis came to 247 µM; in the assay on Entamoeba histolytica it was 116 µM; in the assay on Trichomonas vaginalis, 205 µM.

Regarding `O=c1c(C(Nc2ccccc2[N+](=O)[O-])c2nnnn2C2CCCCC2)coc2ccccc12` (stereo not given), the concentration for half-maximal inhibition (IC50) stood at 194 µM in the assay on Giardia intestinalis, 124 µM in the assay with Entamoeba histolytica and 188 µM in the assay with Trichomonas vaginalis.

On to `CC(C)(C)n1nnnc1C(Nc1ccccc1Br)c1coc2ccccc2c1=O` (stereo not given), for which the IC50 in the assay with Giardia intestinalis came to 242 µM; in the assay on Entamoeba histolytica it was 125 µM; with Trichomonas vaginalis, 234 µM.

Take `O=c1c(C(Nc2ccccc2I)c2nnnn2C2CCCCC2)coc2ccccc12` (stereo not given): the IC50 with Giardia intestinalis is 198 µM; with Entamoeba histolytica, 122 µM; in the assay with Trichomonas vaginalis it was 282 µM.

As for `O=c1c(C(Nc2ccc(Cl)cc2)c2nnnn2C2CCCCC2)coc2ccccc12` (stereo not given), the results for the IC50 in the assay on Giardia intestinalis, in the assay on Entamoeba histolytica and with Trichomonas vaginalis were 218 µM, 176 µM and 284 µM, respectively.

With `O=c1c(C(Nc2ccccc2)c2nnnn2C2CCCCC2)coc2ccccc12` (stereo not given), the IC50 with Giardia intestinalis came out at 286 µM; with Entamoeba histolytica, 183 µM; with Trichomonas vaginalis it was 374 µM.

As for `COc1cc(NC(c2coc3ccccc3c2=O)c2nnnn2C2CCCCC2)cc(OC)c1OC` (stereo not given), the IC50 in the assay on Giardia intestinalis turned out to be 171 µM; with Entamoeba histolytica, 87.9 µM; in the assay with Trichomonas vaginalis it was 176 µM.

For the compound `O=c1c(C(Nc2ccccc2Br)c2nnnn2C2CCCCC2)coc2ccccc12` (stereo not given), the IC50 with Giardia intestinalis was 253 µM; in the assay with Entamoeba histolytica, 114 µM; in the assay with Trichomonas vaginalis, 195 µM.

As for `O=c1c(C(Nc2ccc(I)cc2)c2nnnn2C2CCCCC2)coc2ccccc12` (stereo not given), the half-maximal inhibitory concentration (IC50) was found to be 226 µM in the assay on Giardia intestinalis, 117 µM with Entamoeba histolytica and 222 µM in the assay with Trichomonas vaginalis.

Take `Cc1ncc([N+](=O)[O-])n1CCO` [METRONIDAZOLE]: the concentration for half-maximal inhibition (IC50) with Giardia intestinalis stood at 1.22 µg/mL; in the assay on Entamoeba histolytica, 0.23 µg/mL.

In the case of `CC(C)(C)n1nnnc1C(Nc1ccccc1)c1coc2ccccc2c1=O` (stereo not given), the figures for the IC50 with Giardia intestinalis, in the assay on Entamoeba histolytica and in the assay with Trichomonas vaginalis were 316 µM, 188 µM and 432 µM, respectively.
